For 18 compounds, EC50 results are on record in patent US11117905B2, “Bisaryl heterocycles as NRF2 activators” (GLAXOSMITHKLINE INTELLECTUAL PROPERTY DEVELOPMENT LIMITED, priority 2016, dated 2021).

As usually defined, the EC50 is the concentration needed to bring the measured effect to its halfway point.

The experiment has as its system NQO1 specific enzyme activity in BEAS-2B cells (marker for NRF2 activation). The experiment can be described thus: BEAS-2B NQO1 MTT Assay. The format is cell-based. Particulars: Homo sapiens, BEAS-2B, 48 h, NQO1 specific activity induction, 48 hours with compound. An excerpt:
NAD(P)H:quinone oxidoreductase 1 (NQO1), also called DT diaphorase, is a homodimeric FAD-containing enzyme that catalyzes obligatory NAD(P)H-dependent two-electron reductions of quinones and protects cells against the toxic and neoplastic effects of free radicals and reactive oxygen species arising from one-electron reductions. The transcription of NQO1 is finely regulated by NRF2, and thus NQO1 activity is a good marker for NRF2 activation. On day one, frozen BEAS-2B cells (ATCC) were thawed in a water bath, counted, and re-suspended at a concentration of 250,000 cells/mL. Fifty microliters of cells were plated in 384 well black clear-bottomed plates. Plates were incubated at 37° C., 5% CO2 overnight. On day two, plates were centrifuged and 50 nL of compound or controls were added to the cells. Plates were then incubated at 37° C., 5% CO2 for 48 hours. On day four, medium was aspirated from the plate and crude cell lysates were made by adding 13 uL of 1× Cell Signaling Technologies lysis buffer with 1 Complete, Mini, EDTA-free Protease Inhibitor Tablet (Roche) for each 10 mL of lysis buffer. After lysis plates were incubated for 20 minutes at room temperature. Two microliters of lysate were removed for use in Cell Titer Glo assay (Promega) and MTT cocktail was prepared (Prochaska et. al. 1998) for measurement of NQO1 activity. Fifty microliters of MTT cocktail is added to each well, plate is centrifuged, and analyzed on an Envision plate reader (Perkin Elmer) using Absorbance 570 nm label for 30 minutes. Product formation was measured kinetically and the pEC50 of NQO1 specific activity induction was calculated by plotting the change in absorbance (Delta OD/min) versus the log of compound concentration followed by 3-parameter fitting.
pEC50 is the negative log of the EC50.
EC50s<1 nM (+++++), EC50s 1 nM-10 nM (++++), EC50s 10 nM-100 nM (+++), EC50s 100 nM-1 uM (++), EC50s 1 uM-10 uM (+), EC50s>10 uM (−), or were not determined (ND).
For the compound `CCn1nnc2c(C)c([C@H](c3cc(CN4C[C@H](C)Cc5ccccc5S4(=O)=O)c(C)s3)C(C)(C)C(=O)O)ccc21` [Example 17, (S)-3-(1-Ethyl-4-methyl-1H-benzo[d][1,2,3]triazol-5-yl)-2,2-dimethyl-3-(5-methyl-4-(((R)-4-methyl-1,1-dioxido-4,5-dihydrobenzo[f][1,2]thiazepin-2(3H)-yl)methyl)thiophen-2-yl)propanoic Acid], the EC50 lay within 1 to 10 nM. For `CCn1nnc2c(C)c([C@H](c3cc(CN4C[C@@H](C)Cc5ccccc5S4(=O)=O)c(C)s3)C(C)(C)C(=O)O)ccc21` [Example 18, (S)-3-(1-Ethyl-4-methyl-1H-benzo[d][1,2,3]triazol-5-yl)-2,2-dimethyl-3-(5-methyl-4-(((S)-4-methyl-1,1-dioxido-4,5-dihydrobenzo[f][1,2]thiazepin-2(3H)-yl)methyl)thiophen-2-yl)propanoic Acid], the half-maximal effective concentration (EC50) is under 1 nM. For `CCn1nnc2c(C)c([C@H](c3cc(CN4C[C@@H](C)Cc5ncccc5S4(=O)=O)c(C)s3)C(C)(C)C(=O)O)ccc21` [Example 19, (S)-3-(1-Ethyl-4-methyl-1H-benzo[d][1,2,3]triazol-5-yl)-2,2-dimethyl-3-(5-methyl-4-(((S)-4-methyl-1,1-dioxido-4,5-dihydropyrido[2,3-f][1,2]thiazepin-2(3H)-yl)methyl)thiophen-2-yl)propanoic Acid] the value was under 1 nM; for `CC[C@@H]1CN(Cc2cc([C@H](CC(=O)O)c3ccc4c(nnn4CC)c3C)sc2Cl)S(=O)(=O)c2cnccc2O1` [Example 22, (R)-3-(5-chloro-4-(((R)-4-ethyl-1,1-dioxido-3,4-dihydro-2H-pyrido[4,3-b][1,4,5]oxathiazepin-2-yl)methyl)thiophen-2-yl)-3-(1-ethyl-4-methyl-1H-benzo[d][1,2,3]triazol-5-yl)propanoic Acid], 10 to 100 nM. For `CCn1nnc2c(C)c([C@@H](c3cc(CN4C[C@@H](C)Cc5ncccc5S4(=O)=O)n(C)n3)C(C)(C)C(=O)O)ccc21` [Example 23, (R)-3-(1-Ethyl-4-methyl-1H-benzo[d][1,2,3]triazol-5-yl)-2,2-dimethyl-3-(1-methyl-5-(((S)-4-methyl-1,1-dioxido-4,5-dihydropyrido[2,3-f][1,2]thiazepin-2(3H)-yl)methyl)-1H-pyrazol-3-yl)propanoic Acid] the value was 1000 to 10000 nM; for `CC[C@@H]1CN(Cc2cc([C@@H](CC(=O)O)c3ccc4c(nnn4CC)c3C)sc2C)S(=O)(=O)c2cccnc2O1` [Example 24, (S)-3-(4-(((R)-4-Ethyl-1,1-dioxido-3,4-dihydro-2H-pyrido[2,3-b][1,4,5]oxathiazepin-2-yl)methyl)-5-methylthiophen-2-yl)-3-(1-ethyl-4-methyl-1H-benzo[d][1,2,3]triazol-5-yl)propanoic Acid], 100 to 1000 nM; for `CC[C@@H]1CN(Cc2nc([C@@H](c3ccc4c(nnn4CC)c3C)C(C)(C)C(=O)Nc3cccnc3)sc2C)S(=O)(=O)c2cccnc2O1` [Example 25, (S)-3-(4-(((R)-4-Ethyl-1,1-dioxido-3,4-dihydro-2H-pyrido[2,3-b][1,4,5]oxathiazepin-2-yl)methyl)-5-methylthiazol-2-yl)-3-(1-ethyl-4-methyl-1H-benzo[d][1,2,3]triazol-5-yl)-2,2-dimethyl-N-(pyridin-3-yl)propanamide], 100 to 1000 nM. Regarding `CC[C@@H]1CN(Cc2nc([C@@H](c3ccc4c(nnn4CC)c3C)C(C)(C)C(=O)O)sc2C)S(=O)(=O)c2cccnc2O1` [Example 26, (S)-3-(4-(((R)-4-Ethyl-1,1-dioxido-3,4-dihydro-2H-pyrido[2,3-b][1,4,5]oxathiazepin-2-yl)methyl)-5-methylthiazol-2-yl)-3-(1-ethyl-4-methyl-1H-benzo[d][1,2,3]triazol-5-yl)-2,2-dimethylpropanoic Acid], the EC50 was 1 to 10 nM.

For `CC[C@@H]1CN(Cc2nc([C@@H](c3ccc4c(nnn4CC)c3C)C(C)(C)C(=O)O)sc2C)S(=O)(=O)c2cnccc2O1` [Example 27, (S)-3-(4-(((R)-4-Ethyl-1,1-dioxido-3,4-dihydro-2H-pyrido[4,3-b][1,4,5]oxathiazepin-2-yl)methyl)-5-methylthiazol-2-yl)-3-(1-ethyl-4-methyl-1H-benzo[d][1,2,3]triazol-5-yl)-2,2-dimethylpropanoic Acid], the EC50 was under 1 nM. Then `CC[C@@H]1CN(Cc2nc([C@@H](c3ccc4c(nnn4CC)c3C)C(C)(C)C(=O)Nc3cccnc3)sc2C)S(=O)(=O)c2cnccc2O1` [Example 28, (S)-3-(4-(((R)-4-Ethyl-1,1-dioxido-3,4-dihydro-2H-pyrido[4,3-b][1,4,5]oxathiazepin-2-yl)methyl)-5-methylthiazol-2-yl)-3-(1-ethyl-4-methyl-1H-benzo[d][1,2,3]triazol-5-yl)-2,2-dimethyl-N-(pyridin-3-yl)propanamide], with 100 to 1000 nM; and `CC[C@@H]1CN(Cc2nc([C@@H](c3ccc4c(nnn4CC)c3C)C(C)(C)C(=O)O)sc2C)S(=O)(=O)c2ncccc2O1` [Example 29, (S)-3-(4-(((R)-4-Ethyl-1,1-dioxido-3,4-dihydro-2H-pyrido[3,2-b][1,4,5]oxathiazepin-2-yl)methyl)-5-methylthiazol-2-yl)-3-(1-ethyl-4-methyl-1H-benzo[d][1,2,3]triazol-5-yl)-2,2-dimethylpropanoic Acid], with 1 to 10 nM; and `CC[C@@H]1CN(Cc2nc([C@@H](c3ccc4c(nnn4CC)c3C)C(C)(C)C(=O)Nc3cccnc3)sc2C)S(=O)(=O)c2ncccc2O1` [Example 30, (S)-3-(4-(((R)-4-Ethyl-1,1-dioxido-3,4-dihydro-2H-pyrido[3,2-b][1,4,5]oxathiazepin-2-yl)methyl)-5-methylthiazol-2-yl)-3-(1-ethyl-4-methyl-1H-benzo[d][1,2,3]triazol-5-yl)-2,2-dimethyl-N-(pyridin-3-yl)propanamide], with 100 to 1000 nM.

As for `CCn1nnc2c(C)c([C@H](c3cc(CN4C[C@@H](C)Cc5ncccc5S4(=O)=O)n(C)n3)C(C)(C)C(=O)O)ccc21` [Example 31, (S)-3-(1-Ethyl-4-methyl-1H-benzo[d][1,2,3]triazol-5-yl)-2,2-dimethyl-3-(1-methyl-5-(((S)-4-methyl-1,1-dioxido-4,5-dihydropyrido[2,3-f][1,2]thiazepin-2(3H)-yl)methyl)-1H-pyrazol-3-yl)propanoic Acid], the EC50 fell in the range of 100 to 1000 nM. Then `CCn1nnc2c(C)c([C@H](c3cc(CN4CCC[C@H](n5cccn5)C4)c(C)s3)C(C)(C)C(=O)O)ccc21` [Example 32, (S)-3-(4-(((S)-3-(1H-Pyrazol-1-yl)piperidin-1-yl)methyl)-5-methylthiophen-2-yl)-3-(1-ethyl-4-methyl-1H-benzo[d][1,2,3]triazol-5-yl)-2,2-dimethylpropanoic acid], with 100 to 1000 nM; and `CC[C@H]1Cc2ncccc2S(=O)(=O)N(Cc2nc([C@@H](c3ccc4c(nnn4CC)c3C)C(C)(C)C(=O)O)sc2C)C1` [Example 33, (S)-3-(4-(((S)-4-Ethyl-1,1-dioxido-4,5-dihydropyrido[2,3-f][1,2]thiazepin-2(3H)-yl)methyl)-5-methylthiazol-2-yl)-3-(1-ethyl-4-methyl-1H-benzo[d][1,2,3]triazol-5-yl)-2,2-dimethylpropanoic Acid], with under 1 nM. Then `CC[C@H]1Cc2ncccc2S(=O)(=O)N(Cc2nc([C@@H](c3ccc4c(nnn4CC)c3C)C(C)(C)C(=O)Nc3cccnc3)sc2C)C1` [Example 34, (S)-3-(4-(((S)-4-Ethyl-1,1-dioxido-4,5-dihydropyrido[2,3-f][1,2]thiazepin-2(3H)-yl)methyl)-5-methylthiazol-2-yl)-3-(1-ethyl-4-methyl-1H-benzo[d][1,2,3]triazol-5-yl)-2,2-dimethyl-N-(pyridin-3-yl)propanamide], with 100 to 1000 nM; and `CC[C@@H]1CN(Cc2cc([C@H](c3ccc4c(nnn4CC)c3C)C(C)(C)C(=O)O)sc2Cl)S(=O)(=O)c2cnccc2O1` [Example 36, (R)-3-(5-Chloro-4-(((R)-4-ethyl-1,1-dioxido-3,4-dihydro-2H-pyrido[4,3-b][1,4,5]oxathiazepin-2-yl)methyl)thiophen-2-yl)-3-(1-ethyl-4-methyl-1H-benzo[d][1,2,3]triazol-5-yl)-2,2-dimethylpropanoic Acid], with 100 to 1000 nM. With `CCn1nnc2c(C)c([C@@H](c3cc(CN4C[C@@H](C)Cc5ccc(C(F)(F)F)cc5S4(=O)=O)n(C)n3)C(C)(C)C(=O)O)ccc21` [Example 37, (R)-3-(1-Ethyl-4-methyl-1H-benzo[d][1,2,3]triazol-5-yl)-2,2-dimethyl-3-(1-methyl-5-(((S)-4-methyl-1,1-dioxido-8-(trifluoromethyl)-4,5-dihydrobenzo[f][1,2]thiazepin-2(3H)-yl)methyl)-1H-pyrazol-3-yl)propanoic Acid], the EC50 lay within 100 to 1000 nM.
